Measurements: patent US11053204B2, “Pyrimidinyloxy benzene derivatives as herbicides” (FMC Corporation, priority 2015, dated 2021)

How the values were obtained:
Format in all cases: in vivo
[1] = system: Italian ryegrass (Lolium multiflorum); test: Test A preemergence, visual injury rating; conditions: for Ryegrass, Italian plant response rating: 0 to 100 scale (0 no effect, 100 complete control)
Method in brief: (§1)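 Injury scores run from 0, no effect, to 100, complete control, judged by eye against untreated plants roughly 10 days after treatment. Chemicals carried a surfactant in a non-phytotoxic solvent and went onto loam–sand soil preemergence or onto one- to two-leaf seedlings postemergence.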

[2] = system: barnyardgrass (Echinochloa crus-galli); test: Test A preemergence, visual injury rating; conditions: for Barnyardgrass plant response rating: 0 to 100 scale (0 no effect, 100 complete control)
Method in brief: as §1

[3] = system: giant foxtail (Setaria faberii); test: Test A preemergence, visual injury rating; conditions: for Foxtail, Giant plant response rating: 0 to 100 scale (0 no effect, 100 complete control)
Method in brief: as §1

kochia (Kochia scoparia) [4] = test: Test A preemergence, visual injury rating; conditions: for Kochia plant response rating: 0 to 100 scale (0 no effect, 100 complete control)
Method in brief: as §1

[5] = system: pigweed (Amaranthus retroflexus); test: Test A preemergence, visual injury rating; conditions: for Pigweed plant response rating: 0 to 100 scale (0 no effect, 100 complete control)
Method in brief: as §1

[6] = system: ragweed (common ragweed, Ambrosia elatior); test: Test A preemergence, visual injury rating; conditions: for Ragweed plant response rating: 0 to 100 scale (0 no effect, 100 complete control)
Method in brief: as §1

[7] = system: Italian ryegrass (Lolium multiflorum); test: Test A postemergence, visual injury rating; conditions: 0 is no effect, 100 is complete control; for Ryegrass, Italian plant response rating: 0 to 100 scale, approximately 10 days
Method in brief: as §1

[8] = system: barnyardgrass (Echinochloa crus-galli); test: Test A postemergence, visual injury rating; conditions: 0 is no effect, 100 is complete control; for Barnyardgrass plant response rating: 0 to 100 scale, approximately 10 days
Method in brief: as §1

[9] = system: blackgrass (Alopecurus myosuroides); test: Test A postemergence, visual injury rating; conditions: 0 is no effect, 100 is complete control; for Blackgrass plant response rating: 0 to 100 scale, approximately 10 days
Method in brief: as §1

corn (Zea mays) = test: Test A postemergence, visual injury rating; conditions: 0 is no effect, 100 is complete control; for Corn plant response rating: 0 to 100 scale, approximately 10 days
Method in brief: as §1

[10] = system: galium (catchweed bedstraw, Galium aparine); test: Test A postemergence, visual injury rating; conditions: 0 is no effect, 100 is complete control; for Galium plant response rating: 0 to 100 scale, approximately 10 days
Method in brief: as §1

[11] = system: giant foxtail (Setaria faberii); test: Test A postemergence, visual injury rating; conditions: 0 is no effect, 100 is complete control; for Foxtail, Giant plant response rating: 0 to 100 scale, approximately 10 days
Method in brief: as §1

kochia (Kochia scoparia) [12] = test: Test A postemergence, visual injury rating; conditions: 0 is no effect, 100 is complete control; for Kochia plant response rating: 0 to 100 scale, approximately 10 days
Method in brief: as §1

[13] = system: pigweed (Amaranthus retroflexus); test: Test A postemergence, visual injury rating; conditions: 0 is no effect, 100 is complete control; for Pigweed plant response rating: 0 to 100 scale, approximately 10 days
Method in brief: as §1

[14] = system: ragweed (common ragweed, Ambrosia elatior); test: Test A postemergence, visual injury rating; conditions: 0 is no effect, 100 is complete control; for Ragweed plant response rating: 0 to 100 scale, approximately 10 days
Method in brief: as §1

[15] = system: wheat (Triticum aestivum); test: Test A postemergence, visual injury rating; conditions: 0 is no effect, 100 is complete control; for Wheat plant response rating: 0 to 100 scale, approximately 10 days
Method in brief: as §1

[16] = system: barnyardgrass (Echinochloa crus-galli); test: Test B flooded paddy test, plant response rating; conditions: 250 g ai/ha; Flood; scale of 0 to 100 where 0 is no effect and 100 is complete control; 13 to 15 days
Method in brief: (§2)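 Visual injury ratings against untreated controls, taken 13 to 15 days after compound was added to paddy water standing 3 cm above the soil.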

[17] = system: ducksalad (Heteranthera limosa); test: Test B flooded paddy test, plant response rating; conditions: 250 g ai/ha; Flood; scale of 0 to 100 where 0 is no effect and 100 is complete control; 13 to 15 days
Method in brief: as §2

rice (Oryza sativa) = test: Test B flooded paddy test, plant response rating; conditions: 250 g ai/ha; Flood; scale of 0 to 100 where 0 is no effect and 100 is complete control; 13 to 15 days
Method in brief: as §2

[18] = system: sedge, umbrella (small-flower umbrella sedge, Cyperus difformis); test: Test B flooded paddy test, plant response rating; conditions: 250 g ai/ha; Flood; scale of 0 to 100 where 0 is no effect and 100 is complete control; 13 to 15 days
Method in brief: as §2

[19] = 31 g ai/ha, 0 to 100 scale, 0 no effect, 100 complete control

SMILES | Ryegrass, Italian plant response rating ([1]; 125 g ai/ha) | Barnyardgrass plant response rating ([2]; 125 g ai/ha) | Foxtail, Giant plant response rating ([3]; 125 g ai/ha) | Kochia plant response rating (kochia (Kochia scoparia) [4]; 125 g ai/ha) | Pigweed plant response rating ([5]; 125 g ai/ha) | Ragweed plant response rating ([6]; 125 g ai/ha) | Ryegrass, Italian plant response rating ([7]; 125 g ai/ha) | Barnyardgrass plant response rating ([8]; 125 g ai/ha) | Blackgrass plant response rating ([9]; 125 g ai/ha) | Corn plant response rating (corn (Zea mays); 125 g ai/ha) | Galium plant response rating ([10]; 125 g ai/ha) | Foxtail, Giant plant response rating ([11]; 125 g ai/ha) | Kochia plant response rating (kochia (Kochia scoparia) [12]; 125 g ai/ha) | Pigweed plant response rating ([13]; 125 g ai/ha) | Ragweed plant response rating ([14]; 125 g ai/ha) | Wheat plant response rating ([15]; 125 g ai/ha) | Plant response rating, Barnyardgrass [16] | Plant response rating, Ducksalad [17] | Plant response rating, Rice (rice (Oryza sativa)) | Plant response rating, Sedge, Umbrella [18] | also measured
C=CCSC(=O)c1c(Br)cccc1Oc1ncc(Cl)cn1 [Compound 91] | 0 | 90 | 70 | 20 | 40 | 0 | 0 | 30 | 20 | 20 | 70 | 30 | 60 | 100 | 0 | 20 | 0 | 100 | 20 | 95 | Ryegrass, Italian plant response rating ([1]; 500 g ai/ha): 80; Barnyardgrass plant response rating ([2]; 500 g ai/ha): 100; Foxtail, Giant plant response rating ([3]; 500 g ai/ha): 100; Kochia plant response rating (kochia (Kochia scoparia) [4]; 500 g ai/ha): 100; Pigweed plant response rating ([5]; 500 g ai/ha): 100; Ragweed plant response rating ([6]; 500 g ai/ha): 0; Ryegrass, Italian plant response rating (0 to 100 scale) ([7]; 500 g ai/ha): 30; Barnyardgrass plant response rating (0 to 100 scale) ([8]; 500 g ai/ha): 100; Blackgrass plant response rating (0 to 100 scale) ([9]; 500 g ai/ha): 30; Corn plant response rating (0 to 100 scale) (corn (Zea mays); 500 g ai/ha): 50; Galium plant response rating (0 to 100 scale) ([10]; 500 g ai/ha): 90; Foxtail, Giant plant response rating (0 to 100 scale) ([11]; 500 g ai/ha): 100; Kochia plant response rating (0 to 100 scale) (kochia (Kochia scoparia) [12]; 500 g ai/ha): 100; Pigweed plant response rating (0 to 100 scale) ([13]; 500 g ai/ha): 100; Ragweed plant response rating (0 to 100 scale) ([14]; 500 g ai/ha): 20; Wheat plant response rating (0 to 100 scale) ([15]; 500 g ai/ha): 30
O=C(NCCC(F)(F)F)c1c(Br)cccc1Oc1ncc(Cl)cn1 [Compound 93] | 0 | 0 | 0 | 0 | 0 | 0 | 0 | 0 | 0 | 0 | 0 | 0 | 0 | 0 | 0 | 0 | 0 | 0 | 0 | 0 | Plant response rating, Ryegrass, Italian [1, 19]: 0; Plant response rating, Barnyardgrass [2, 19]: 0; Plant response rating, Foxtail, Giant [3, 19]: 0; Plant response rating, Kochia (kochia (Kochia scoparia) [4]; [19]): 0; Plant response rating, Pigweed [5, 19]: 0; Plant response rating, Ragweed [6, 19]: 0; Ryegrass, Italian plant response rating ([7]; 31 g ai/ha): 0; Barnyardgrass plant response rating ([8]; 31 g ai/ha): 0; Blackgrass plant response rating ([9]; 31 g ai/ha): 0; Corn plant response rating (corn (Zea mays); 31 g ai/ha): 0; Galium plant response rating ([10]; 31 g ai/ha): 0; Foxtail, Giant plant response rating ([11]; 31 g ai/ha): 0; Kochia plant response rating (kochia (Kochia scoparia) [12]; 31 g ai/ha): 0; Pigweed plant response rating ([13]; 31 g ai/ha): 0; Ragweed plant response rating ([14]; 31 g ai/ha): 0; Wheat plant response rating ([15]; 31 g ai/ha): 0
